# Assay results published in patent US9663496B2, “AMPK-activating heterocyclic compounds and methods for using the same” (Rigel Pharmaceuticals, Inc., priority 2010, dated 2017).
# Target: AMPK
# Test: AMPK activation, enzyme-linked immunosorbent assay
# Assay type: biochemical
# Conditions: EC50 for AMPK activation, ELISA
# In short: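 Activator screen performed per well-known kit methods.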
row,SMILES,EC50
1,N#Cc1ccc(O[C@H]2CC[C@@H](NC(=O)c3ccc(C(=O)N4CCC(C(=O)c5ccc(F)cc5)CC4)cn3)CC2)cc1 [Compound 151],< 500 nM
2,"N#Cc1ccc(CN2CCC(NC(=O)c3ccc(C(=O)N4CCC(Oc5ccc(C(F)(F)F)cc5)CC4)cn3)CC2)cc1 [Compound 157, N-(1-(4-cyanobenzyl)piperidin-4-yl)-5-(4-(4-(trifluoromethyl)phenoxy)piperidine-1-carbonyl)picolinamide]",< 500 nM
3,"N#Cc1ccc(CN2CCC(NC(=O)c3ncc(C(=O)N4CCN(Cc5ccc(F)cc5)CC4)cc3C#CCNC(=O)COCCOCCOCCOCCNC(=O)CCCC[C@@H]3SC[C@@H]4NC(=O)N[C@@H]43)CC2)cc1 [Compound 159, N-(1-(4-cyanobenzyl)piperidin-4-yl)-3-(5,20-dioxo-24-((3aS,4S,6aR)-2-oxohexahydro-1H-thieno[3,4-d]imidazol-4-yl)-7,10,13,16-tetraoxa-4,19-diazatetracos-1-ynyl)-5-(4-(4-fluorobenzyl)piperazine-1-carbonyl)picolinamide]",1000 to 5000 nM
4,"COc1ccc(CN2CCC(NC(=O)c3ccc(C(=O)N4CCC(Oc5ccc(F)cc5)CC4)cn3)CC2)cc1 [Compound 161, 5-(4-(4-fluorophenoxy)piperidine-1-carbonyl)-N-(1-(4-methoxybenzyl)piperidin-4-yl)picolinamide]",< 500 nM
5,"N#Cc1ccc(CN2CCC(NC(=O)c3ccc(N4CCC(Oc5ccc(C#N)cc5)CC4)cn3)CC2)cc1 [Compound 165, N-(1-(4-cyanobenzyl)piperidin-4-yl)-5-(4-(4-cyanophenoxy)piperidin-1-yl)picolinamide]",< 500 nM

# Next, values leading:
row,EC50,SMILES
1,< 500 nM,"N#Cc1ccc(O[C@H]2CC[C@@H](NC(=O)c3ccc(C(=O)N4CCN(Cc5ccc(F)cc5)CC4)cn3)CC2)cc1 [Compound 150, N-(cis-4-(4-cyanophenoxy)cyclohexyl)-5-(4-(4-fluorobenzyl)piperazine-1-carbonyl)picolinamide]"
2,1000 to 5000 nM,"N#Cc1ccc(CN2CCC(NC(=O)c3ccc(C(=O)N4CCCCC4Cc4ccc(F)cc4)cn3)CC2)cc1 (stereo not shown) [Compound 153, N-(1-(4-cyanobenzyl)piperidin-4-yl)-5-(2-(4-fluorobenzyl)piperidine-1-carbonyl)picolinamide]"
3,< 500 nM,"N#Cc1ccc(CN2CCC(NC(=O)c3ccc(C(=O)N4CCC(C(=O)c5ccc(Cl)cc5)CC4)cn3)CC2)cc1 [Compound 154, 5-(4-(4-chlorobenzoyl)piperidine-1-carbonyl)-N-(1-(4-cyanobenzyl)piperidin-4-yl)picolinamide]"
4,< 500 nM,"N#Cc1ccc(CN2CCC(NC(=O)c3ccc(C(=O)N4CCC(Oc5cccc(C#N)c5)CC4)cn3)CC2)cc1 [Compound 155, N-(1-(4-cyanobenzyl)piperidin-4-yl)-5-(4-(3-cyanophenoxy)piperidine-1-carbonyl)picolinamide]"
5,< 500 nM,"N#Cc1ccc(CN2CCC(NC(=O)c3ccc(C(=O)N4CCC(Oc5ccc(C#N)c(Cl)c5)CC4)cn3)CC2)cc1 [Compound 156, 5-(4-(3-chloro-4-cyanophenoxy)piperidine-1-carbonyl)-N-(1-(4-cyanobenzyl)piperidin-4-yl)picolinamide]"
6,< 500 nM,"N#Cc1ccc(CN2CCC(NC(=O)c3ccc(C(=O)N4CCC(Oc5ccc(F)c(F)c5)CC4)cn3)CC2)cc1 [Compound 158, N-(1-(4-cyanobenzyl)piperidin-4-yl)-5-(4-(3,4-difluorophenoxy)piperidine-1-carbonyl)picolinamide]"
7,< 500 nM,"COc1ccc(CN2CCC(NC(=O)c3ccc(C(=O)N4CCC(C(=O)c5ccc(F)cc5)CC4)cn3)CC2)cc1 [Compound 160, 5-(4-(4-fluorobenzoyl)piperidine-1-carbonyl)-N-(1-(4-methoxybenzyl)piperidin-4-yl)picolinamide]"
8,500 to 1000 nM,"CC(C)(C)OC(=O)NCC#Cc1cc(C(=O)N2CCN(Cc3ccc(F)cc3)CC2)cnc1C(=O)NC1CCN(Cc2ccc(C#N)cc2)CC1 [Compound 164, tert-butyl 3-(2-(1-(4-cyanobenzyl)piperidin-4-ylcarbamoyl)-5-(4-(4-fluorobenzyl)piperazine-1-carbonyl)pyridin-3-yl)prop-2-ynylcarbamate]"
